Patent US11220482B2, “Aminopyridinemethanol compounds and their use” (UNIVERSITE AMIENS PICARDIE JULES VERNE, priority 2017, dated 2022)
Read-outs that look alike come from different tables or passages of the source.

Columns and labels:
P. falciparum W2 = assay: P. falciparum growth inhibition assay, second round (SYBR Green I, ICEstimator); format: cell-based; settings: Plasmodium falciparum, 48 h
P. falciparum 3D7 = assay: as above; format: cell-based, Plasmodium falciparum; settings: Plasmodium falciparum, 3D7, 48 h
CHO-K1 cells [1] = settings: Chinese hamster, 24 h
Protocol: All the assays were conducted in duplicate. The CHO-K1 cells, suspended in Mac Coy's 5A medium, were transferred into Labteck wells at a concentration of 100,000 cells/mL, and incubated for 24 hours at 37° C. in CO2 (5%).
The test was performed without metabolic activation: the test substances were added into cell cultures at concentrations previously defined. […] After 24 hours of incubation at 37° C. in CO2 (5%), the culture medium was removed, the cells were rinsed with phosphate buffered saline (PBS), and then returned in culture medium containing […] of cytochalasine B. After a 24-hour incubation period at 37° C., cells were rinsed with phosphate buffered saline (PBS), fixed with methanol and stained with 10% Giemsa for 20 minutes.
The analysis of results was performed under a microscope at ×1000 magnification. The antiproliferative activity of test substances was estimated by counting the number of binucleated cells relative to the number of mononucleated cells on a total of 500 cells for each dose (250 cells counted per well). The proliferation index (Cytokinesis Blocked Proliferative Index CBPI) was calculated using the following formula:
The cytostasis index (CI %), i.e. the percentage of cell replication inhibition, was calculated using the following formula: CI %−100−{100×(CBPItest material−1)/(CBPIsolvent control−1)}
The rates of micronuclei were evaluated for the presence of independent nuclear core entities in 1000 binucleated cells per well, which corresponds to 2000 cells examined by test substance dose. Micronuclei were identified as small nuclei well differentiated from cell nucleus, stained in the same manner and having a diameter less than one third of that of the cell nucleus.
Micronuclei rates obtained for different doses of test substances were compared to the negative control by a χ2 test. The assay was considered positive if: • A dose-response relationship was obtained between the rate of micronuclei and the doses tested, • At least one of these doses induced a statistically significant increase (P<0.05) in the number of micronucleated cells as compared to the negative control.

S. typhimurium TA98 = assay: Bacterial reverse mutation assay (Ames test)
Salmonella strains = assay: Bacterial reverse mutation assay (Ames test), overall conclusion; format: cell-based, S. typhimurium; settings: all tested doses, absence or presence of the metabolizing mixture
Protocol: Five strains of S. typhimurium were used. […] An additional strain has been chosen to detect cross-linking mutagens, hydrazines and oxidative agents: TA102, which have an AT base pair at the primary reversion site. Salmonella tester strains were gifts from Prof. B. N. Ames (Berkeley, Calif., USA). They were stored at −80° C. and regularly checked for genetic markers.
Few crystals of the frozen working strains were taken with a sterile pipette, and seeded in 10 mL of nutrient broth (NB No 2, Oxoid). Strains were grown overnight at 37° C. with shaking in Nutrient Broth No. 2, with ampicillin (25 μg/mL) for TA1535, TA97a, TA98, and TA 100, or ampicillin (25 μg/mL) plus tetracyclin (2 μg/mL) for TA 102. At the end of the incubation period, 0.1 mL of each overnight culture was mixed to 0.1 mL S9 Mix or 0.1 mL phosphate-buffered saline (PBS, pH 7.4) in 5 mL plastic tubes and various volumes of the tested samples were added to the mixtures. Each experiment included triplicate plates of four tested doses. A solvent (DMSO, 10 μL) control was added to determine the spontaneous frequency of revertants (quadruple plates). Five positive controls were also included to ensure the performance of the tester strains and the S9 Mix. […] After hardening, the plates were incubated at 37° C. for 48 hours.
At the end of the incubation period, revertants were counted with a laser colony counter equipped with a bacterial enumeration program (Spiral System Instrument Inc., Bethesda, Md., USA).
The Dunnett test was performed to determine a significant difference between the mean number of induced revertants and the mean number of spontaneous revertants.

Plasmodium falciparum W2 = assay: Plasmodium falciparum susceptibility assay, first round (SYBR Green I); format: cell-based; settings: W2, first round, 48-h incubation, strain resistant to CQ, sensitive to MQ, read-out: IC50 (nM) Plasmodium falciparum W2 (converted)
CHO-K1 cells [2] = assay: In vitro micronucleus assay, short-term exposure
Outline: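 Micronuclei were scored in 1000 binucleated cells per well in duplicate wells. Cytostasis came from CBPI over 500 cells. Doses were compared with the negative control by χ2.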

[3] = tested on: Plasmodium falciparum 3D7; assay: Plasmodium falciparum susceptibility assay, first round (SYBR Green I); format: cell-based; settings: 3D7, first round, 48-h incubation, strain susceptible to CQ, decreased susceptibility to MQ, read-out: IC50 (nM) Plasmodium falciparum 3D7 (converted)
[4] = tested on: P. falciparum D6, W2 and 3D7 strains; settings: cited from earlier work

## O[C@@H](CNCCCCCCF)c1ccc(-c2ccc(C(F)(F)F)cc2)nc1C(F)(F)F [Compound 30t]
P. falciparum W2
  IC50: 181 nM
P. falciparum 3D7
  IC50: 1460 nM

## CCCCCNC[C@@H](O)c1ccc(-c2ccc(C(F)(F)F)cc2)nc1C(F)(F)F [Compound 30c, (S)-2-(Pentylamino)-1-(2-(trifluoromethyl)-6-(4-(trifluoromethyl)phenyl)pyridin-3-yl)ethanol]
S. typhimurium TA100; with S9 mix, 0.4 μg/plate
  Number of revertants by plate (Means ± SD), TA100: 202 ± 8^NS
S. typhimurium TA100; with S9 mix, 0.6 μg/plate
  Number of revertants by plate (Means ± SD), TA100: 183 ± 12^NS
S. typhimurium TA100; with S9 mix, 0.8 μg/plate
  Number of revertants by plate (Means ± SD), TA100: 178 ± 11^NS
S. typhimurium TA100; with S9 mix, 1 μg/plate
  Number of revertants by plate (Means ± SD), TA100: 168 ± 12^NS
S. typhimurium TA100; without S9 mix, 0.4 μg/plate
  Number of revertants by plate (Means ± SD), TA100: 197 ± 6^NS
S. typhimurium TA100; without S9 mix, 0.6 μg/plate
  Number of revertants by plate (Means ± SD), TA100: 201 ± 9^NS
S. typhimurium TA100; without S9 mix, 0.8 μg/plate
  Number of revertants by plate (Means ± SD), TA100: 211 ± 12^NS
S. typhimurium TA100; without S9 mix, 1 μg/plate
  Number of revertants by plate (Means ± SD), TA100: 206 ± 14^NS
CHO-K1 cells [1]; 5 μM
  BI (binucleated cells): 432
  CBPI (Cytokinesis-Blocked Proliferative Index): 1.86
  CI % (cytostasis index): 5%
  MNC1 (micronucleated cell rate): 8 ‰
  MNC2 (micronucleated cell rate): 12 ‰
  MNC-M (mean of micronucleated cell rates): 10 ± 2.8 ‰
  MONO (mononucleated cells): 68
CHO-K1 cells [1]; 10 μM
  BI (binucleated cells): 331
  CBPI (Cytokinesis-Blocked Proliferative Index): 1.66
  CI % (cytostasis index): 27%
  MNC1 (micronucleated cell rate): 9 ‰
  MNC2 (micronucleated cell rate): 11 ‰
  MNC-M (mean of micronucleated cell rates): 10 ± 1.4 ‰
  MONO (mononucleated cells): 169
CHO-K1 cells [1]; 50 μM
  BI (binucleated cells): 218
  CBPI (Cytokinesis-Blocked Proliferative Index): 1.42
  CI % (cytostasis index): 52%
  MNC1 (micronucleated cell rate): 10 ‰
  MNC2 (micronucleated cell rate): 12 ‰
  MNC-M (mean of micronucleated cell rates): 11 ± 1.4 ‰
  MONO (mononucleated cells): 282
S. typhimurium TA102; with S9 mix, 0.4 μg/plate
  Number of revertants by plate (Means ± SD), TA102: 346 ± 8^NS
S. typhimurium TA102; with S9 mix, 0.6 μg/plate
  Number of revertants by plate (Means ± SD), TA102: 349 ± 12^NS
S. typhimurium TA102; with S9 mix, 0.8 μg/plate
  Number of revertants by plate (Means ± SD), TA102: 368 ± 11^NS
S. typhimurium TA102; with S9 mix, 1 μg/plate
  Number of revertants by plate (Means ± SD), TA102: 359 ± 6^NS
S. typhimurium TA102; without S9 mix, 0.4 μg/plate
  Number of revertants by plate (Means ± SD), TA102: 298 ± 21^NS
S. typhimurium TA102; without S9 mix, 0.6 μg/plate
  Number of revertants by plate (Means ± SD), TA102: 319 ± 14^NS
S. typhimurium TA102; without S9 mix, 0.8 μg/plate
  Number of revertants by plate (Means ± SD), TA102: 331 ± 17^NS
S. typhimurium TA102; without S9 mix, 1 μg/plate
  Number of revertants by plate (Means ± SD), TA102: 339 ± 12^NS
S. typhimurium TA97a; with S9 mix, 0.4 μg/plate
  Number of revertants by plate (Means ± SD), TA97a: 128 ± 10^NS
S. typhimurium TA97a; with S9 mix, 0.6 μg/plate
  Number of revertants by plate (Means ± SD), TA97a: 134 ± 8^NS
S. typhimurium TA97a; with S9 mix, 0.8 μg/plate
  Number of revertants by plate (Means ± SD), TA97a: 137 ± 11^NS
S. typhimurium TA97a; with S9 mix, 1 μg/plate
  Number of revertants by plate (Means ± SD), TA97a: 125 ± 8^NS
S. typhimurium TA97a; without S9 mix, 0.4 μg/plate
  Number of revertants by plate (Means ± SD), TA97a: 148 ± 8^NS
S. typhimurium TA97a; without S9 mix, 0.6 μg/plate
  Number of revertants by plate (Means ± SD), TA97a: 155 ± 6^NS
S. typhimurium TA97a; without S9 mix, 0.8 μg/plate
  Number of revertants by plate (Means ± SD), TA97a: 159 ± 8^NS
S. typhimurium TA97a; without S9 mix, 1 μg/plate
  Number of revertants by plate (Means ± SD), TA97a: 138 ± 8^NS
S. typhimurium TA98; with S9 mix, 0.4 μg/plate
  Number of revertants by plate (Means ± SD), TA98: 34 ± 6^NS
S. typhimurium TA98; with S9 mix, 0.6 μg/plate
  Number of revertants by plate (Means ± SD), TA98: 38 ± 5^NS
S. typhimurium TA98; with S9 mix, 0.8 μg/plate
  Number of revertants by plate (Means ± SD), TA98: 28 ± 4^NS
S. typhimurium TA98; with S9 mix, 1 μg/plate
  Number of revertants by plate (Means ± SD), TA98: 26 ± 6^NS
S. typhimurium TA98; without S9 mix, 0.4 μg/plate
  Number of revertants by plate (Means ± SD), TA98: 35 ± 3^NS
S. typhimurium TA98; without S9 mix, 0.6 μg/plate
  Number of revertants by plate (Means ± SD), TA98: 33 ± 2^NS
S. typhimurium TA98; without S9 mix, 0.8 μg/plate
  Number of revertants by plate (Means ± SD), TA98: 34 ± 5^NS
S. typhimurium TA98; without S9 mix, 1 μg/plate
  Number of revertants by plate (Means ± SD), TA98: 32 ± 6^NS
Salmonella strains
  mutagenic activity in Salmonella strains (revertant rates): No significant increase in revertant rates
Plasmodium falciparum W2
  IC50: 24.4 nM
CHO-K1 cells [2]
  in vitro micronucleus assay result (clastogenic and/or aneugenic activities): negative results
S. typhimurium TA1535; with S9 mix, 0.4 μg/plate
  Number of revertants by plate (Means ± SD), TA1535: 22 ± 5^NS
S. typhimurium TA1535; with S9 mix, 0.6 μg/plate
  Number of revertants by plate (Means ± SD), TA1535: 26 ± 6^NS
S. typhimurium TA1535; with S9 mix, 0.8 μg/plate
  Number of revertants by plate (Means ± SD), TA1535: 25 ± 8^NS
S. typhimurium TA1535; with S9 mix, 1 μg/plate
  Number of revertants by plate (Means ± SD), TA1535: 26 ± 7^NS
S. typhimurium TA1535; without S9 mix, 0.4 μg/plate
  Number of revertants by plate (Means ± SD), TA1535: 26 ± 3^NS
S. typhimurium TA1535; without S9 mix, 0.6 μg/plate
  Number of revertants by plate (Means ± SD), TA1535: 25 ± 4^NS
S. typhimurium TA1535; without S9 mix, 0.8 μg/plate
  Number of revertants by plate (Means ± SD), TA1535: 28 ± 8^NS
S. typhimurium TA1535; without S9 mix, 1 μg/plate
  Number of revertants by plate (Means ± SD), TA1535: 25 ± 6^NS
[3]
  IC50: 232 ± 17 nM

## O[C@H](c1cc(C(F)(F)F)nc2c(C(F)(F)F)cccc12)[C@@H]1CCCCN1 [(+)-mefloquine]
[4]
  factor by which more active than the other mefloquine isomer: 1.6-1.8

## O[C@H](CNCCCCCCF)c1ccc(-c2ccc(C(F)(F)F)cc2)nc1C(F)(F)F [Compound 30s]
P. falciparum W2
  IC50: 97.1 nM
P. falciparum 3D7
  IC50: 421 nM
